How the values were obtained:
[1] = test system: wheat (cultivar: Chihoku Komugi); test: Test Example 3: phytotoxicity for wheat by treatment of seeds (safety test on plant); format: in vivo; details: wheat seed dressing, 0.15% active ingredient based on weight of dry seeds; 7 and 14 days after sowing
Experimental: Seeds of wheat (cultivar: Chihoku Komugi) and a wettable powder prepared according to Formulation Example were placed in a vinyl bag, followed by adding thereto a small volume of water, and they were mixed to conduct seed dressing. On the day after this treatment, the seeds sowed in a plastic pot of 10 cm diameter, and cultivated in a greenhouse. Seven days and fourteen days after sowing, phytotoxicity for germination of the seeds and growth at the early stage were evaluated.

[2] = test system: powdery mildew fungus (Blumeria graminis); test: Test Example 1: controlling effect by seed dressing against wheat powdery mildew; format: in vivo; details: 0.15% active ingredient based on weight of dry seeds, inoculated 25 days after sowing, investigated 7 days after inoculation
Description: (§1) Seeds of wheat (cultivar: chihoku komugi) and a wettable powder prepared according to Formulation Example were placed in a vinyl bag, followed by adding thereto a small volume of water, and they were mixed to conduct seed dressing. On the day after this treatment, the seeds sowed in a plastic pot of 10 cm diameter, and cultivated in a greenhouse. Twenty five days after sowing, the seedlings thus obtained were inoculated with powdery mildew fungus (Blumeria graminis) by sprinkling. Seven days after inoculation, the seedlings were investigated and infection index was estimated according to the criterion shown below, after which the control efficacy (%) was calculated. In this occasion, infection index on the untreated plot was 8.0. As comparative examples, the following compounds described in JP-A-2001-10909 were evaluated. • I: 3′-chloro-4,4′-dimethyl-1,2,3-thiadiazole-5-carboxanilide • II: benzyl 4-isopropyl-1,2,3-thiadiazole-5-carboxylate • III: methyl 4-cyclopropyl-1,2,3-thiadiazole-5-carboxylate • IV: 4-cyclopropyl-1,2,3-thiadiazole-5-carboxylic acid Infection Index • 0: No infection. • 0.5: Lesion area percentage: less than 10% • 1: Lesion area percentage; 10 to less than 20% • 2: Lesion area percentage; 20 to less than 30% • 3: Lesion area percentage; 30 to less than 40% • 4: Lesion area percentage; 40 to less than 50% • 5: Lesion area percentage; 50 to less than 60% • 6: Lesion area percentage; 60 to less than 70% • 7: Lesion area percentage; 70 to less than 80% • 8: Lesion area percentage; 80 to less than 90% • 9: Lesion area percentage; 90 to less than 100% • 10: Lesion area percentage; 100% Control efficacy (%)={1-(infection index on treated plot/infection index on untreated plot)}×100 Rank of Control Efficacy • A: Control efficacy 100-90% • B: Control efficacy 89-80% • C: Control efficacy 79-60% • D: Control efficacy 59-0%

[3] = test system: powdery mildew fungus (Blumeria graminis); test: Test Example 2: controlling effect by seed dressing against wheat powdery mildew, long-lasting effect; format: in vivo; details: 0.15% active ingredient based on weight of dry seeds, inoculated 50 days after sowing, investigated 7 days after inoculation
Description: as §1
Seeds of wheat (cultivar: Chihoku Komugi) and a wettable powder prepared according to Formulation Example were placed in a vinyl bag, followed by adding thereto a small volume of water, and they were mixed to conduct seed dressing. On the day after this treatment, the seeds sowed in a plastic pot of 10 cm diameter, and cultivated in a greenhouse. Fifty days after sowing, the seedlings thus obtained were inoculated with powdery mildew fungus (Blumeria graminis) by sprinkling. Seven days after inoculation, the seedlings were investigated and infection index was estimated according to the criterion shown below, after which the control efficacy (%) was calculated. In this occasion, infection index on the untreated plot was 8.0. As comparative examples, the above-described compounds I, II, III and IV were evaluated.

SMILES	phytotoxicity for germination of the seeds and growth at the early stage [1]	Rank of control efficacy [2]	Rank of control efficacy [3]	melting point [°C]
CCCCCCCCOC(=O)c1snnc1C1CC1 [1-8]	absolutely no phytotoxicity	B or more		
O=C(OCc1cccc(Cl)c1)c1snnc1C1CC1 [1-11]	absolutely no phytotoxicity	B or more		
O=C(OCc1ccc(Cl)cc1)c1snnc1C1CC1 [1-12]	absolutely no phytotoxicity	B or more		
COC(=O)c1ccc(COC(=O)c2snnc2C2CC2)cc1 [1-24]	absolutely no phytotoxicity	B or more		
O=C(OCc1cc(Cl)cc(Cl)c1)c1snnc1C1CC1 [1-30]	absolutely no phytotoxicity	B or more		
CC(OC(=O)c1snnc1C1CC1)c1ccc(Cl)cc1 (stereo not drawn) [1-44]	absolutely no phytotoxicity	B or more		
COc1ccc(C(C)OC(=O)c2snnc2C2CC2)cc1 (stereo not drawn) [1-50]		B or more	B or more	
O=C(NCc1ccccc1)c1snnc1C1CC1 [1-53]	absolutely no phytotoxicity	B or more		
COc1ccc(CNC(=O)c2snnc2C2CC2)cc1 [1-62]		B or more	B or more	
CC(C)(C)c1ccc(CNC(=O)c2snnc2C2CC2)cc1 [1-63]	absolutely no phytotoxicity	B or more		
O=C(NCc1ccc(OCC(F)(F)F)cc1)c1snnc1C1CC1 [1-68]		B or more	B or more	
CN(Cc1ccccc1)C(=O)c1snnc1C1CC1 [1-82]		B or more	B or more	
Cc1ccc(NC(=O)c2snnc2C2CC2)cc1Cl [1-95, 3′-chloro-4-cyclopropyl-4′-methyl-1,2,3-thiadiazole-5-carboxanilide]	absolutely no phytotoxicity	B or more		150 to 153
COc1ccc(NC(=O)c2snnc2C2CC2)c(OC)c1 [1-96]	absolutely no phytotoxicity	B or more		
COc1ccc(NC(=O)c2snnc2C2CC2)cc1OC [1-97]		B or more	B or more	
O=C(O)c1ccccc1NC(=O)c1snnc1C1CC1 [1-98, 2-(4-cyclopropyl-1,2,3-thiadiazol-5-ylcarbonylamino)benzoic acid]	absolutely no phytotoxicity	B or more		
N#Cc1ccccc1NC(=O)c1snnc1C1CC1 [1-100, 2′-cyano-4-cyclopropyl-1,2,3-thiadiazole-5-carboxanilide]				124
CC(C)Cc1csc(NC(=O)c2snnc2C2CC2)n1 [1-110]	absolutely no phytotoxicity	B or more		
O=C(Nc1nc2ccccc2s1)c1snnc1C1CC1 [1-111]		B or more	B or more	
O=C(Nc1nnc(C(F)(F)F)s1)c1snnc1C1CC1 [1-112]		B or more	B or more	
O=C(NOCc1ccccc1)c1snnc1C1CC1 [1-113]		B or more	B or more	
O=C(NS(=O)(=O)c1ccccc1)c1snnc1C1CC1 [1-121]	absolutely no phytotoxicity	B or more		
Cc1ccc(NC(=S)c2snnc2C2CC2)cc1Cl [1-143, 3′-chloro-4-cyclopropyl-4′-methyl-1,2,3-thiadiazole-5-thiocarboxamilide]		B or more	B or more	

SMILES	phytotoxicity for germination of the seeds and growth at the early stage [1]	Rank of control efficacy [2]	Rank of control efficacy [3]	melting point [°C]
COc1ccc(NC(=S)c2snnc2C2CC2)c(OC)c1 [1-144]		B or more	B or more	
C=CCNC(=O)c1snnc1C1CC1 [1-145]		B or more	B or more	
COc1ccc(OC)c(NC(=O)c2snnc2C2CC2)c1 [1-155]		B or more	B or more	
COc1ccc(NC(=O)c2snnc2C2CC2)c(C)c1 [1-156]		B or more	B or more	
COc1cccc(CNC(=O)c2snnc2C2CC2)c1OC [1-165]		B or more	B or more	
COc1ccc(CNC(=O)c2snnc2C2CC2)cc1OC [1-166]	absolutely no phytotoxicity	B or more		
COc1ccc(OC)c(CNC(=O)c2snnc2C2CC2)c1 [1-167]		B or more	B or more	
CCOC(=O)c1csc(NC(=O)c2snnc2C2CC2)n1 [1-169]		B or more	B or more	
O=C(Nc1nc(-c2ccccc2)cs1)c1snnc1C1CC1 [1-170]		B or more	B or more	
CCOC(=O)c1sc(NC(=O)c2snnc2C2CC2)nc1C [1-173]		B or more	B or more	
COc1cc(OC)nc(NC(=O)c2snnc2C2CC2)n1 [1-175]		B or more	B or more	
COc1cc(C)nc(NC(=O)c2snnc2C2CC2)n1 [1-176]		B or more	B or more	
Cc1cc(C)nc(NC(=O)c2snnc2C2CC2)n1 [1-177]		B or more	B or more	
O=C(Nc1nc2ccc(Cl)cc2s1)c1snnc1C1CC1 [1-178]		B or more	B or more	
CN(C)c1ccncc1.O=C(Nc1nc2ccc(Cl)cc2s1)c1snnc1C1CC1 [1-179]		B or more	B or more	
Cc1nc(-c2cccnc2NC(=O)c2snnc2C2CC2)no1 [1-183]		B or more	B or more	
O=C(Nc1cccc2nnsc12)c1snnc1C1CC1 [1-184]		B or more	B or more	
CNC(=O)c1ccccc1NC(=O)c1snnc1C1CC1 [1-189]		B or more	B or more	
CSc1ccccc1NC(=O)c1snnc1C1CC1 [1-190]		B or more	B or more	
N#Cc1snnc1C1CC1 [3-1, 4-cyclopropyl-1,2,3-thiadiazole-5-carbonitrile]		B or more	B or more	
O=C(O)c1snnc1C1CC1 [Comparative compound IV, 4-cyclopropyl-1,2,3-thiadiazole-5-carboxylic acid]	delay germination and suppressed growth		B (Control efficacy 89-80%)	158 to 159
COC(=O)c1snnc1C1CC1 [III, methyl 4-cyclopropyl-1,2,3-thiadiazole-5-carboxylate]				47
